Laboratory results published in patent publication US20260116920A1, “HUMAN TRANSFERRIN RECEPTOR BINDING PEPTIDE” (PEPTIDREAM INC., priority 2021, published 2026).
Positions of bridges follow the written chain, without caps; N, C: chain ends. Non-standard residues stand in square brackets, D forms with d. Residues, ends and D or L forms follow the SMILES beside them. *: point of attachment. Trp(1-CH2COOH) = N[C@@H](Cc1cn(CC(=O)O)c2ccccc12)C(=O)O; Phe(3-COOH) = N[C@@H](Cc1cccc(C(=O)O)c1)C(=O)O; NH(CH2CH2O)8Me = COCCOCCOCCOCCOCCOCCOCCOCCN*; NMePhe(3-Cl) = CN[C@@H](Cc1cccc(Cl)c1)C(=O)O; 3Pal(6-NH2) = Nc1ccc(C[C@H](N)C(=O)O)cn1; NMeY = CN[C@@H](Cc1ccc(O)cc1)C(=O)O; 3Pal = N[C@@H](Cc1cccnc1)C(=O)O; PEG4 = NCCOCCOCCOCCOCCC(=O)O; Carboxymethyl = O=C(O)C*

These molecules were tested against T1, human transferrin receptor (hTfR) (Homo sapiens, UniProt P02786) (assay: Evaluation of molecular interaction between transferrin receptor (hTfR) and peptide using surface plasmon resonance (SPR)). Conditions: KD class for binding to hTfR by SPR; peptide with the linker shown in the same line; 'low signal indicates no activity'; read-out: SPR.
T1 construct: made in house
Type: binding
Description: Evaluation Test of Molecular Interaction Between Transferrin Receptor (hTfR) and Peptide Using Surface Plasmon Resonance (SPR)
The intermolecular interactions of various synthesized peptides with the transferrin receptor (hTfR) by surface plasmon resonance (SPR) of the peptides were tested by the methods described below. Specific test methods are shown below.
NTA sensor chip (Global Life Sciences Technologies Japan K.K.) was inserted into BiacoreT200 (Global Life Sciences Technologies Japan K.K.), then the priming operation was performed three times by using running buffer containing: 10 mM HEPES pH 8.0 (Nacalai Tesque, Inc.), 150 mM NaCl (Nacalai Tesque, Inc.), 0.05% Tween 20 (Nacalai Tesque, Inc.), 0.1% BSA (SIGMA-ALDRICH) and 1.0% DMSO (FUJIFILM Wako Pure Chemical Corporation), and equilibrated at a flow rate of 30 μL/min. 350 mM EDTA solution was reacted at a flow rate of 10 μL/min for 60 seconds, 0.5 mM […] solution (Kishida Chemical Co., Ltd.) was reacted at a flow rate of 10 μL/min for 60 seconds, and then the NTA sensor chip was washed with 3 mM EDTA solution (Nacalai Tesque, Inc.) at a flow rate of 10 μL/min for 60 seconds. After mixing 50 μL each of 60 mM EDC solution (Global Life Science Technologies Japan K.K.) and 650 mM NHS solution (Global Life Science Technologies Japan K.K.), the reaction was carried out at a flow rate of 10 μL/min for 420 seconds. 150 μL of 0.5 μM hTfR dimer solution was prepared by dilution with running buffer and reacted at a flow rate of 10 μL/min for 300 seconds to immobilize hTfR on the NTA sensor chip. For the human transferrin receptor (hTfR), recombinant hTfR described in Example 2 of WO2018/124121 was used. After immobilization, capping was performed by reacting with 1.0 M ethanolamine solution (Global Life Sciences Technologies Japan K.K.) at a flow rate of 10 μL/min for 420 seconds. Peptide lysate prepared in DMSO solution to 10 mM was diluted with running buffer to be a final concentration of 10 μM peptide lysate, then peptide solutions of 100 nM, 50 nM, 25 nM, 10 nM, and 5 nM were prepared. Using the above samples, the kinetics of the peptide against hTfR was obtained by SPR measurement.
The kinetic evaluation model was single-cycle kinetics, and curve fitting was performed using Biacore T200 Evaluation Software Version 3.0 (Global Life Science Technologies Japan K.K.). The binding of the peptide to hTfR was evaluated by performing curve fitting on the obtained sensorgram by least squares method and obtaining the KD value.

T1 sequence (P02786 89-760 limits assumed): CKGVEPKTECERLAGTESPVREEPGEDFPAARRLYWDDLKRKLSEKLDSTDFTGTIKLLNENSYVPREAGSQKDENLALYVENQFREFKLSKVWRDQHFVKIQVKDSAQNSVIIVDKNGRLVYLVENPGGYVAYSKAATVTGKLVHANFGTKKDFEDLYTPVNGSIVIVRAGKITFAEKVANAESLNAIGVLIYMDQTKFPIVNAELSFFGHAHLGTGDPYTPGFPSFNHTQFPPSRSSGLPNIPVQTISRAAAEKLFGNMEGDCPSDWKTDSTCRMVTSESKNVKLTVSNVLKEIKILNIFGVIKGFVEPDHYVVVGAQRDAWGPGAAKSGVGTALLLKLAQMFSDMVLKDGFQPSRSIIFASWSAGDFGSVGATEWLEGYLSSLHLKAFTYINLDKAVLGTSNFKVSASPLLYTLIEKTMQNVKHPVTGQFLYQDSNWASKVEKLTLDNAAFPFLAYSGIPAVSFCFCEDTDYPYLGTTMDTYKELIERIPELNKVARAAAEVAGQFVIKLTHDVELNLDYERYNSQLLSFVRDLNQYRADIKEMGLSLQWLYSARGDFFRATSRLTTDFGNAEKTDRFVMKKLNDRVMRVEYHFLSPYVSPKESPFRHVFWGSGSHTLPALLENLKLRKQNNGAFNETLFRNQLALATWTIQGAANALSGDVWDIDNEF

Kd, 1 to 100 nM:
CC[C@H](C)[C@@H]1NC(=O)[C@H](Cc2ccc(OC)cc2)NC(=O)[C@H](Cc2ccc(N)nc2)NC(=O)[C@H](CC(N)=O)NC(=O)[C@H](Cc2cn(CC(=O)O)c3ccccc23)NC(=O)[C@H](C(C)C)NC(=O)[C@H](Cc2cccc(Cl)c2)N(C)C(=O)[C@H](C(C)C)NC(=O)[C@H](C)NC(=O)CSC[C@@H](C(=O)NCCOCCOCCOCCOCCC(N)=O)NC(=O)[C@H](Cc2ccc(O)cc2)N(C)C(=O)[C@H](Cc2ccccc2)NC(=O)[C@H](CCCNC(=N)N)NC(=O)[C@H](CCCNC(=N)N)NC(=O)[C@H]([C@@H](C)CC)NC1=O [894_0332] ({CH2CO}-AV[NMePhe(3-Cl)]V[Trp(1-CH2COOH)]N[3Pal(6-NH2)]Y(Me)IIRRF[NMeY]C[PEG4]-NH2; thioether N-15), CC[C@H](C)[C@@H]1NC(=O)[C@H](Cc2cccnc2)NC(=O)[C@H](Cc2ccc(O)cc2)NC(=O)[C@H](CC(N)=O)NC(=O)[C@H](Cc2cn(CC(=O)O)c3ccccc23)NC(=O)[C@H](C(C)C)NC(=O)[C@H](Cc2cccc(Cl)c2)N(C)C(=O)[C@H](C(C)C)NC(=O)[C@H](C)NC(=O)CSC[C@@H](C(=O)NCCOCCOCCOCCOCCC(N)=O)NC(=O)[C@H](Cc2ccc(O)cc2)N(C)C(=O)[C@H](Cc2ccccc2)NC(=O)[C@H](CCCNC(=N)N)NC(=O)[C@H](CCCNC(=N)N)NC(=O)[C@H]([C@@H](C)CC)NC1=O [894_0333] ({CH2CO}-AV[NMePhe(3-Cl)]V[Trp(1-CH2COOH)]NY[3Pal]IIRRF[NMeY]C[PEG4]-NH2; thioether N-15), CC[C@H](C)[C@@H]1NC(=O)[C@H](Cc2ccc(OC)cc2)NC(=O)[C@H](Cc2ccc(O)cc2)NC(=O)[C@H](CC(N)=O)NC(=O)[C@H](Cc2cn(CC(=O)O)c3ccccc23)NC(=O)[C@H](C(C)C)NC(=O)[C@H](Cc2cccc(Cl)c2)N(C)C(=O)[C@H](C(C)C)NC(=O)[C@H](C)NC(=O)CSC[C@@H](C(=O)NCCOCCOCCOCCOCCC(N)=O)NC(=O)[C@H](Cc2ccc(O)cc2)N(C)C(=O)[C@H](Cc2ccncc2)NC(=O)[C@H](CCCNC(=N)N)NC(=O)[C@H](CCCNC(=N)N)NC(=O)[C@H]([C@@H](C)CC)NC1=O [894_0335], CC[C@H](C)[C@@H]1NC(=O)[C@H](Cc2ccc(OC)cc2)NC(=O)[C@H](Cc2ccc(O)cc2)NC(=O)[C@H](CC(N)=O)NC(=O)[C@H](Cc2cn(CC(=O)O)c3ccccc23)NC(=O)[C@H](C(C)C)NC(=O)[C@H](Cc2cccc(Cl)c2)N(C)C(=O)[C@H](C(C)C)NC(=O)[C@H](C)NC(=O)CSC[C@@H](C(=O)NCCOCCOCCOCCOCCC(N)=O)NC(=O)[C@H](Cc2ccc(O)cc2)N(C)C(=O)[C@H](Cc2cccc(C(=O)O)c2)NC(=O)[C@H](CCCNC(=N)N)NC(=O)[C@H](CCCNC(=N)N)NC(=O)[C@H]([C@@H](C)CC)NC1=O [894_0336], CC[C@H](C)[C@@H]1NC(=O)[C@H](Cc2cccnc2)NC(=O)[C@H](Cc2ccc(N)nc2)NC(=O)[C@H](CC(N)=O)NC(=O)[C@H](Cc2cn(CC(=O)O)c3ccccc23)NC(=O)[C@H](C(C)C)NC(=O)[C@H](Cc2cccc(Cl)c2)N(C)C(=O)[C@H](C(C)C)NC(=O)[C@H](C)NC(=O)CSC[C@@H](C(=O)NCCOCCOCCOCCOCCC(N)=O)NC(=O)[C@H](Cc2ccc(O)cc2)N(C)C(=O)[C@H](Cc2ccccc2)NC(=O)[C@H](CCCNC(=N)N)NC(=O)[C@H](CCCNC(=N)N)NC(=O)[C@H]([C@@H](C)CC)NC1=O [894_0338] ({CH2CO}-AV[NMePhe(3-Cl)]V[Trp(1-CH2COOH)]N[3Pal(6-NH2)][3Pal]IIRRF[NMeY]C[PEG4]-NH2; thioether N-15), CC[C@H](C)[C@@H]1NC(=O)[C@H](Cc2cccnc2)NC(=O)[C@H](Cc2ccc(N)nc2)NC(=O)[C@H](CC(N)=O)NC(=O)[C@H](Cc2c[nH]c3ccccc23)NC(=O)[C@H](C(C)C)NC(=O)[C@H](Cc2cccc(Cl)c2)N(C)C(=O)[C@H](C(C)C)NC(=O)[C@H](C)NC(=O)CSC[C@@H](C(=O)NCCOCCOCCOCCOCCC(N)=O)NC(=O)[C@H](Cc2ccc(O)cc2)N(C)C(=O)[C@H](Cc2ccccc2)NC(=O)[C@H](CCCNC(=N)N)NC(=O)[C@H](CCCNC(=N)N)NC(=O)[C@H]([C@@H](C)CC)NC1=O [894_0357] ({CH2CO}-AV[NMePhe(3-Cl)]VWN[3Pal(6-NH2)][3Pal]IIRRF[NMeY]C[PEG4]-NH2; thioether N-15), CC[C@H](C)[C@@H]1NC(=O)[C@H](Cc2ccc(OCC(=O)O)cc2)NC(=O)[C@H](Cc2ccc(N)nc2)NC(=O)[C@H](CC(N)=O)NC(=O)[C@H](Cc2c[nH]c3ccccc23)NC(=O)[C@H](C(C)C)NC(=O)[C@H](Cc2cccc(Cl)c2)N(C)C(=O)[C@H](C(C)C)NC(=O)[C@H](C)NC(=O)CSC[C@@H](C(=O)NCCOCCOCCOCCOCCC(N)=O)NC(=O)[C@H](Cc2ccc(O)cc2)N(C)C(=O)[C@H](Cc2ccccc2)NC(=O)[C@H](CCCNC(=N)N)NC(=O)[C@H](CCCNC(=N)N)NC(=O)[C@H]([C@@H](C)CC)NC1=O [894_0358] ({CH2CO}-AV[NMePhe(3-Cl)]VWN[3Pal(6-NH2)]Y(Carboxymethyl)IIRRF[NMeY]C[PEG4]-NH2; thioether N-15), CC[C@H](C)[C@@H]1NC(=O)[C@H](Cc2ccc(OC)cc2)NC(=O)[C@H](Cc2ccc(N)nc2)NC(=O)[C@H](CC(N)=O)NC(=O)[C@H](Cc2c[nH]c3ccccc23)NC(=O)[C@H](C(C)C)NC(=O)[C@H](Cc2cccc(Cl)c2)N(C)C(=O)[C@H](C(C)C)NC(=O)[C@H](C)NC(=O)CSC[C@@H](C(=O)NCCOCCOCCOCCOCCC(N)=O)NC(=O)[C@H](Cc2ccc(O)cc2)N(C)C(=O)[C@H](Cc2cccc(C(=O)O)c2)NC(=O)[C@H](CCCNC(=N)N)NC(=O)[C@H](CCCNC(=N)N)NC(=O)[C@H]([C@@H](C)CC)NC1=O [894_0359] ({CH2CO}-AV[NMePhe(3-Cl)]VWN[3Pal(6-NH2)]Y(Me)IIRR[Phe(3-COOH)][NMeY]C[PEG4]-NH2; thioether N-15), CC[C@H](C)[C@@H]1NC(=O)[C@H](Cc2cccnc2)NC(=O)[C@H](Cc2ccc(O)cc2)NC(=O)[C@H](CC(N)=O)NC(=O)[C@H](Cc2c[nH]c3ccccc23)NC(=O)[C@H](C(C)C)NC(=O)[C@H](Cc2cccc(Cl)c2)N(C)C(=O)[C@H](C(C)C)NC(=O)[C@H](C)NC(=O)CSC[C@@H](C(=O)NCCOCCOCCOCCOCCC(N)=O)NC(=O)[C@H](Cc2ccc(O)cc2)N(C)C(=O)[C@H](Cc2ccccc2)NC(=O)[C@H](CCC(=O)NCCOCCOCCOCCOCCOCCOCCOCCOC)NC(=O)[C@H](CCCNC(=N)N)NC(=O)[C@H]([C@@H](C)CC)NC1=O [894_0360] ({CH2CO}-AV[NMePhe(3-Cl)]VWNY[3Pal]IIRE(NH(CH2CH2O)8Me)F[NMeY]C[PEG4]-NH2; thioether N-15), CC[C@H](C)[C@@H]1NC(=O)[C@H](Cc2cccnc2)NC(=O)[C@H](Cc2ccc(O)cc2)NC(=O)[C@H](CC(N)=O)NC(=O)[C@H](Cc2c[nH]c3ccccc23)NC(=O)[C@H](C(C)C)NC(=O)[C@H](Cc2cccc(Cl)c2)N(C)C(=O)[C@H](C(C)C)NC(=O)[C@H](C)NC(=O)CSC[C@@H](C(=O)NCCOCCOCCOCCOCCC(N)=O)NC(=O)[C@H](Cc2ccc(O)cc2)N(C)C(=O)[C@H](Cc2cccc(C(=O)O)c2)NC(=O)[C@H](CCCNC(=N)N)NC(=O)[C@H](CCCNC(=N)N)NC(=O)[C@H]([C@@H](C)CC)NC1=O [894_0361] ({CH2CO}-AV[NMePhe(3-Cl)]VWNY[3Pal]IIRR[Phe(3-COOH)][NMeY]C[PEG4]-NH2; thioether N-15)
